Data published in patent publication US20240116985A1, “STAPLED PEPTIDES AND METHODS THEREOF” (priority 2020, published 2024).
≈ marks a conversion by molar mass, not a printed value. Where two headings read alike, the source gives them in different places.

Columns and labels:
CHI Log D procedure = assay type: physicochemical
[1] = target: T1, full-length beta-Catenin (Uniprot ID P35222) (Homo sapiens, UniProt P35222); assay: Fluorescence polarization IC50 (beta-catenin / 5FAM-TCF4 10-53 competition); assay type: binding
T1 construct: 10 nM full-length beta-Catenin (Uniprot ID P35222)
T1 sequence (P35222 1-781): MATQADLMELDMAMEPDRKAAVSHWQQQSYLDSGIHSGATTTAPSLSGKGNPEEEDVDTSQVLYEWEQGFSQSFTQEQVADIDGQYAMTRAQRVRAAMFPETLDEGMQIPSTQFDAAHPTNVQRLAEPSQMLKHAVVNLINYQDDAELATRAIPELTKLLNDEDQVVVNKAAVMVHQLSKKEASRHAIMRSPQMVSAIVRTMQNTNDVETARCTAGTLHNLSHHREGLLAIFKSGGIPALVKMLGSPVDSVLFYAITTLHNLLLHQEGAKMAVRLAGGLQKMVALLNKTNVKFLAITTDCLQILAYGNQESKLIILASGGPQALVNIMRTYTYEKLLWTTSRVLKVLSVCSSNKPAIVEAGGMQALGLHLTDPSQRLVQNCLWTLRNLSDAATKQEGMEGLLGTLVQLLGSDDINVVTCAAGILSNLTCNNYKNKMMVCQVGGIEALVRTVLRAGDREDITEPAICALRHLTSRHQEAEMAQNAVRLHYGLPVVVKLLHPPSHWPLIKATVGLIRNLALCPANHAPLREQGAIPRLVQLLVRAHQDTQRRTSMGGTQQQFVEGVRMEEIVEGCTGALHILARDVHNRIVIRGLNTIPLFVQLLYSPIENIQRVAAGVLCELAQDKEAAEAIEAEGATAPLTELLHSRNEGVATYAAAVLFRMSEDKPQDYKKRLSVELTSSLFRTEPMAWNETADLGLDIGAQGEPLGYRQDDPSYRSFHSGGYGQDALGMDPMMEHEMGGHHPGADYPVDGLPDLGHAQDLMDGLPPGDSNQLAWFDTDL

Solubility in PBS = assay type: physicochemical
Procedure, shortened: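 Steps: ultracentrifuge the peptide PBS solution, inject the supernatant on HPLC, inject a 50 μM peptide DMSO solution as reference, then calculate solubility as area ratio (PBS/DMSO) × 50 uM.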

[2] = fluorescence polarization, read-out: beta-Catenin FP IC50
[3] = fluorescence polarization, beta-catenin, read-out: FP EC50

| Compound | CHI Log D (CHI Log D procedure; pH 7.4) | IC50 [1, 2] [nM] | IC50 ([1]; read-out: FP EC50) [nM] | Solubility (Solubility in PBS) [µM] | IC50 ([1]; read-out: beta-Catenin FP IC50) [nM] | chromatographic logD (CHI Log D procedure; pH 7.4, CHI Log D) | other results |
| --- | --- | --- | --- | --- | --- | --- | --- |
| CC(=O)N1CCC[C@]12CC=CCCCC1(CCCC=CCCCCCC[C@@](C)(C(=O)N[C@@H](Cc3ccccc3)C(=O)N[C@@H](Cc3csc4ccccc34)C(=O)N[C@@H](CCC(N)=O)C(N)=O)NC(=O)[C@H](CC(N)=O)NC(=O)[C@H](Cc3ccccc3)NC(=O)[C@H](C)NC(=O)[C@H](C)NC(=O)[C@H](CCC(=O)O)NC(=O)[C@H](CC(=O)O)NC1=O)NC(=O)[C@H](C)NC(=O)[C@H](CC(=O)O)NC2=O (stereo partly drawn) [I-424, Ac-PL3-Asp-Ala-B5-Asp-Glu-Ala-Ala-Phe-Asn-S8-Phe-BztA-Gln-NH2] | 1.968 | 170 | 170 | 50 (≈ 91.4 µg/mL) | – | – | – |
| CC(=O)N1CCC[C@]12CC=CCCCC1(CCCC=CCCCOC(=O)N3CC[C@@](C(=O)N[C@@H](Cc4ccsc4)C(=O)N[C@@H](Cc4csc5ccccc45)C(=O)N[C@@H](CCC(N)=O)C(N)=O)(C3)NC(=O)[C@H](CCC(N)=O)NC(=O)[C@H](Cc3ccccc3)NC(=O)[C@H](C)NC(=O)[C@H](C)NC(=O)[C@H](CC(=O)O)NC(=O)[C@H](CC(=O)O)NC1=O)NC(=O)[C@H](CC(C)(C)C)NC(=O)[C@H](CC(=O)O)NC2=O (stereo partly drawn) [I-764, Ac-PL3-Asp-Npg-B5-Asp-Asp-Ala-Ala-Phe-Gln-PyrS2-3Thi-BztA-Gln-NH2] | 2.212 | – | 14 | 45 (≈ 86.9 µg/mL) | 14 | – | – |
| CC(=O)N1CCC[C@]12CC=CCCCC1(CCCC=CCCCCCC[C@@](C)(C(=O)N[C@@H](Cc3ccccc3)C(=O)N[C@@H](Cc3csc4ccccc34)C(=O)N[C@@H](Cc3c[nH]cn3)C(N)=O)NC(=O)[C@H](CCC(N)=O)NC(=O)[C@H](Cc3ccccc3)NC(=O)[C@H](C)NC(=O)[C@H](C)NC(=O)[C@H](CN(CC(=O)O)CC(F)(F)F)NC(=O)[C@H](CC(=O)O)NC1=O)NC(=O)[C@H](C)NC(=O)[C@H](CC(=O)O)NC2=O (stereo partly drawn) [I-499, Ac-PL3-Asp-Ala-B5-Asp-TfeGA-Ala-Ala-Phe-Gln-S8-Phe-BztA-His-NH2] | – | 123 | – | – | – | 2.17 | Solubility (Solubility in PBS; Solubility (uM)): 48 µM (≈ 93.5 µg/mL) |
| CC[C@H](C)[C@@H]1NC(=O)[C@H](CC(=O)O)NC(=O)[C@]2(CC=CCCCC3(CCCC=CCCCCCC[C@@](C)(C(=O)N[C@@H](Cc4ccccc4)C(=O)N[C@@H](Cc4csc5ccccc45)C(=O)N[C@H](C(N)=O)C(C)C)NC(=O)[C@H](CCC(N)=O)NC(=O)[C@H](Cc4ccccc4)NC(=O)[C@H](C)NC(=O)[C@H](C)NC(=O)[C@H](CCC(=O)O)NC(=O)[C@H](CC(=O)O)NC3=O)NC1=O)CCCN2C(C)=O (stereo partly drawn) [I-646, Ac-PL3-Asp-Ile-B5-Asp-Glu-Ala-Ala-Phe-Gln-S8-Phe-BztA-Val-NH2] | 2.694 | 461 | 461 | 41 (≈ 76 µg/mL) | – | – | – |
| CC[C@H](C)[C@@H]1NC(=O)[C@H](CC(=O)O)NC(=O)[C@]2(CC=CCCCC3(CCCC=CCCCCCC[C@@](C)(C(=O)N[C@@H](Cc4ccccc4)C(=O)N[C@@H](Cc4csc5ccccc45)C(=O)N[C@@H](CCC(N)=O)C(N)=O)NC(=O)[C@H](CCC(N)=O)NC(=O)[C@H](Cc4ccccc4)NC(=O)[C@H](CCC(N)=O)NC(=O)[C@H](C)NC(=O)[C@H](CCC(=O)O)NC(=O)[C@H](CC(=O)O)NC3=O)NC1=O)CCCN2C(C)=O (stereo partly drawn) [I-663, Ac-PL3-Asp-Ile-B5-Asp-Glu-Ala-Gln-Phe-Gln-S8-Phe-BztA-Gln-NH2] | – | 43 | – | – | – | 1.8 | Solubility (Solubility in PBS; Solubility (uM)): 42 µM (≈ 81.5 µg/mL) |
| CC(=O)N1CCC[C@]12CC=CCCCC1(CCCC=CCCCOC(=O)N3CC[C@@](C(=O)N[C@@H](Cc4ccsc4)C(=O)N[C@@H](Cc4csc5ccccc45)C(=O)N[C@@H](C(N)=O)[C@H](C)O)(C3)NC(=O)[C@H](CC(N)=O)NC(=O)[C@H](Cc3ccccc3)NC(=O)[C@H](C)NC(=O)[C@H](C)NC(=O)[C@H](CN(CC(=O)O)CC(F)(F)F)NC(=O)[C@H](CC(=O)O)NC1=O)NC(=O)[C@H](CC(C)(C)C)NC(=O)[C@H](CC(=O)O)NC2=O (stereo partly drawn) [I-949, Ac-PL3-Asp-Npg-B5-Asp-TfeGA-Ala-Ala-Phe-Asn-PyrS2-3Thi-BztA-dThr-NH2] | 2.086 | – | – | 49 (≈ 98.1 µg/mL) | 2260 | – | IC50 [1, 3]: 2260 nM |
| CC(=O)N1CCC[C@]12CC=CCCCC1(CCCC=CCCCOC(=O)N3CC[C@@](C(=O)N[C@@H](Cc4ccsc4)C(=O)N[C@@H](Cc4csc5ccccc45)C(=O)N[C@@H](Cc4c[nH]cn4)C(N)=O)(C3)NC(=O)[C@H](CC(N)=O)NC(=O)[C@H](CC(=O)O)NC(=O)[C@H](C)NC(=O)[C@H](C)NC(=O)[C@H](CC(=O)O)NC(=O)[C@H](CC(=O)O)NC1=O)NC(=O)[C@H](CC(C)(C)C)NC(=O)[C@H](Cc1ccccc1)NC2=O (stereo partly drawn) [I-796, Ac-PL3-Phe-Npg-B5-Asp-Asp-Ala-Ala-Asp-Asn-PyrS2-3Thi-BztA-His-NH2] | – | – | 8140 | – | – | 2.45 | Solubility (Solubility in PBS; Solubility (uM)): 35 µM (≈ 67.5 µg/mL) |
| CC(=O)N1CCC[C@]12CC=CCCCC1(CCCC=CCCCOC(=O)N3CC[C@@](C(=O)N[C@@H](Cc4ccccc4Cl)C(=O)N[C@@H](Cc4csc5ccccc45)C(=O)N[C@@H](C(N)=O)[C@H](C)O)(C3)NC(=O)[C@H](Cc3ccccc3)NC(=O)[C@H](Cc3ccccc3)NC(=O)[C@H](C)NC(=O)[C@H](C)NC(=O)[C@H](CCC(=O)O)NC(=O)[C@H](CC(=O)O)NC1=O)NC(=O)[C@H](CC(C)(C)C)NC(=O)[C@H](CC(=O)O)NC2=O (stereo partly drawn) [I-1038, Ac-PL3-Asp-Npg-B5-Asp-Glu-Ala-Ala-Phe-Phe-PyrS2-2C1F-BztA-dThr-NH2] | – | – | – | 10 (≈ 19.7 µg/mL) | 101 | 2.73 | – |
| CC(=O)N1CCC[C@]12CC=CCCCC1(CCCC=CCCCOC(=O)N3CC[C@@](C(=O)N[C@@H](Cc4ccsc4)C(=O)N[C@@H](Cc4csc5ccccc45)C(=O)N[C@@H](CCCCNC(=O)CN=[N+]=[N-])C(N)=O)(C3)NC(=O)[C@H](CC(N)=O)NC(=O)[C@H](Cc3ccccc3)NC(=O)[C@H](C)NC(=O)[C@H](C)NC(=O)[C@H](CC(=O)O)NC(=O)[C@H](CC(=O)O)NC1=O)NC(=O)[C@H](CC(C)(C)C)NC(=O)[C@H](CC(=O)O)NC2=O (stereo partly drawn) [I-878, Ac-PL3-Asp-Npg-B5-Asp-Asp-Ala-Ala-Phe-Asn-PyrS2-3Thi-BztA-[AzAc]Lys-NH2] | – | – | – | 46 (≈ 92.1 µg/mL) | – | – | chromatographic logD (CHI Log D procedure; pH 7.4): 2.09; IC50 ([1]; FP EC50 (nM), fluorescence polarization, beta-catenin): 6 nM |
| CC(=O)N1CCC[C@]12CC=CCCCC1(CCCC=CCCCCCC[C@@](C)(C(=O)N[C@@H](Cc3ccccc3Cl)C(=O)N[C@@H](Cc3csc4ccccc34)C(=O)N[C@@H](C(N)=O)[C@H](C)O)NC(=O)[C@H](CC(C)C)NC(=O)[C@H](Cc3ccccc3)NC(=O)[C@H](C)NC(=O)[C@H](C)NC(=O)[C@H](CCC(=O)O)NC(=O)[C@H](CC(=O)O)NC1=O)NC(=O)[C@H](CC(C)(C)C)NC(=O)[C@H](CC(=O)O)NC2=O (stereo partly drawn) [I-1098, Ac-PL3-Asp-Npg-B5-Asp-Glu-Ala-Ala-Phe-Leu-S8-2ClF-BztA-dThr-NH2] | – | – | – | 10 (≈ 18.9 µg/mL) | 100 | 3.54 | – |
| CC(=O)N1CCC[C@]12CC=CCCCC1(CCCC=CCCCOC(=O)N3CC[C@@](C(=O)N[C@@H](Cc4ccsc4)C(=O)N[C@@H](Cc4csc5ccccc45)C(=O)N[C@@H](CCC(N)=O)C(N)=O)(C3)NC(=O)[C@H](CC(N)=O)NC(=O)[C@H](Cc3ccccc3)NC(=O)[C@H](C)NC(=O)[C@H](C)NC(=O)[C@H](Cc3cccc(C(=O)O)c3)NC(=O)[C@H](CC(=O)O)NC1=O)NC(=O)[C@H](CC(C)(C)C)NC(=O)[C@H](CC(=O)O)NC2=O (stereo partly drawn) [I-976, Ac-PL3-Asp-Npg-B5-Asp-3COOHF-Ala-Ala-Phe-Asn-PyrS2-3Thi-BztA-Gln-NH2] | 1.78 | – | – | 50 (≈ 99.7 µg/mL) | 399 | – | IC50 [1, 3]: 399 nM |
| CC[C@H](C)[C@@H]1NC(=O)[C@H](CC(=O)O)NC(=O)[C@]2(CC=CCCCC3(CCCC=CCCCCCC[C@@](C)(C(=O)N[C@@H](Cc4ccccc4)C(=O)N[C@@H](Cc4csc5ccccc45)C(=O)N[C@@H](CCC(N)=O)C(N)=O)NC(=O)[C@H](CC(N)=O)NC(=O)[C@H](Cc4ccccc4)NC(=O)[C@H](C)NC(=O)[C@H](C)NC(=O)[C@H](CN(CC(=O)O)CC(F)(F)F)NC(=O)[C@H](CC(=O)O)NC3=O)NC1=O)CCCN2C(C)=O (stereo partly drawn) [I-699, Ac-PL3-Asp-Ile-B5-Asp-TfeGA-Ala-Ala-Phe-Asn-S8-Phe-BztA-Gln-NH2] | – | 43 | – | 50 (≈ 98.3 µg/mL) | – | 2.63 | – |
| CC(=O)N1CCC[C@]12CC=CCCCC1(CCCC=CCCCCCC[C@@](C)(C(=O)N[C@@H](CCc3ccccc3)C(=O)N[C@@H](Cc3csc4ccccc34)C(=O)N[C@@H](CCC(N)=O)C(N)=O)NC(=O)[C@H](CC(N)=O)NC(=O)[C@H](Cc3ccccc3)NC(=O)[C@H](C)NC(=O)[C@H](C)NC(=O)[C@H](CCC(=O)O)NC(=O)[C@H](CC(=O)O)NC1=O)NC(=O)[C@H](C)NC(=O)[C@H](CC(=O)O)NC2=O (stereo partly drawn) [I-442, Ac-PL3-Asp-Ala-B5-Asp-Glu-Ala-Ala-Phe-Asn-S8-hPhe-BztA-Gln-NH2] | 2.098 | 4480 | 4480 | 40 (≈ 73.6 µg/mL) | – | – | – |
